This note sets out measurements from patent US5138069A (E. I. Du Pont de Nemours and Company, priority 1988, dated 1992).

What is called IC50 is the concentration at which inhibition is half-maximal. The term minimal effective dose denotes the smallest amount tested that counted as effective.

One assay deals with AII receptor. Kind of assay: Angiotensin II receptor binding (displacement of 3H-AII). The settings on record: read-out: Angiotensin II Receptor Binding IC50, Table 25, rat adrenal cortical microsomes, 2 nM 3H-AII, 1 hour, room temperature. As to the method: The assay was carried out according to the method described by [Glossmann et al., J. Biol. Chem., 249, 825 (1974)], but with some modifications. The reaction mixture contained rat adrenal cortical microsomes (source of AII receptor) in Tris buffer and 2 nM of ^3 H-AII with or without potential AII antagonist. This mixture was incubated for 1 hour at room temperature and the reaction was subsequently terminated by rapid filtration and rinsing through glass micro-fibre filter. Receptor-bound ^3 H-AII trapped in filter was quantitated by scintillation counting.
(§1) Compounds listed in Table 26 were tested in the same manner as described for Table 25, except that in the test for antihypertensive effects in renal hypertensive rats, the compounds were administered orally at 30 mg/kg and intravenously at 3 mg/kg.
(Loss of bound radioactivity is the signal in a displacement assay; it reports binding, not function.)

For the next assay, the system named is Renal Hypertensive Rats. Put plainly: Antihypertensive effects in renal hypertensive rats. It counts as in vivo. The conditions noted are these: Rattus norvegicus, Table 25; for minimal effective dose at 100 mg/kg: oral, 100 mg/kg or less; for minimal effective dose at 10 mg/kg: intravenous, 10 mg/kg or less. As for the experimental part:
This procedure increases blood pressure by increasing renin production with consequent elevation of AII levels. Compounds are administered orally at 100 mg/kg and/or intravenously via a cannula in the jugular vein at 10 mg/kg. Arterial blood pressure is continuously measured directly through a carotid artery cannula and recorded using a pressure transducer and a polygraph. Blood pressure levels after treatment are compared to pretreatment levels to determine the antihypertensive effects of the compounds (See Table 25).
as §1

Each structure is given as a SMILES string. Like-named read-outs stand apart in the source and are kept apart here. Where only a bound is given, the exact number is not on record here.

`CCCCc1nc(CC(=O)OC)c(Cl)n1Cc1ccc(NC(=O)c2ccccc2C(=O)O)cc1` [Example 3, Methyl 2-butyl-1-[4-(2-carboxybenzamido)benzyl]-5-chloroimidazole-4-acetate]: at AII receptor (tested as sodium salt), the IC50 is 420 nM. Also, in the assay on Renal Hypertensive Rats (tested as sodium salt), the minimal effective dose at 100 mg/kg was more than 100 mg/kg.
In the case of `CCCCc1nc(Cl)c(CC(=O)OC)n1Cc1ccc(NC(=O)c2ccccc2-c2ccccc2C(=O)O)cc1` [Example 5], the IC50 on AII receptor (tested as sodium salt) came to 190 nM. In the assay on Renal Hypertensive Rats (tested as sodium salt), the minimal effective dose at 100 mg/kg is more than 100 mg/kg.
Regarding `CCCCc1nc(Cl)c(CC(=O)OC)n1Cc1ccc(NC(=O)c2c(C(=O)O)cccc2[N+](=O)[O-])cc1` [Example 7], the IC50 at AII receptor was 420 nM. Besides, in the assay with Renal Hypertensive Rats, the minimal effective dose at 10 mg/kg was less than 10 mg/kg and the minimal effective dose at 100 mg/kg is more than 100 mg/kg.
On to `CCCCc1nc(Cl)c(CC(=O)OC)n1Cc1ccc(NC(=O)c2c(Cl)ccc(Cl)c2C(=O)O)cc1` [Example 16], for which the concentration for half-maximal inhibition (IC50) at AII receptor was determined as 18 nM. Moreover, in the assay with Renal Hypertensive Rats, the minimal effective dose at 10 mg/kg is less than 10 mg/kg and the minimal effective dose at 100 mg/kg was more than 100 mg/kg.
Turning to `CCCCc1nc(Cl)c(CC(=O)OC)n1Cc1ccc(NS(=O)(=O)C(F)(F)F)cc1` [Example 21, Methyl 2-butyl-4-chloro-1-[4-(trifluoromethylsulfonamido)benzyl]imidazole-5-acetate], the concentration for half-maximal inhibition (IC50) at AII receptor (tested as sodium salt) came to 2100 nM. Besides, in the assay on Renal Hypertensive Rats (tested as sodium salt), the minimal effective dose at 10 mg/kg was less than 10 mg/kg and the minimal effective dose at 100 mg/kg is more than 100 mg/kg.
`CCCCc1nc(Cl)c(Cc2nnn[nH]2)n1Cc1cccc(-c2nnn[nH]2)c1` [Example 26, 2-Butyl-4-chloro-5-[(1H-tetrazol-5-yl)methyl]-1-[3-(1H-tetrazol-5-yl)benzyl]imidazole]: the IC50 at AII receptor (tested as sodium salt) was determined as 3800 nM. Also, in the assay on Renal Hypertensive Rats (tested as sodium salt), the minimal effective dose at 100 mg/kg is more than 100 mg/kg.
Regarding `CCCCc1nc(Cl)c(Cc2nnn[nH]2)n1Cc1ccc(-c2nnn[nH]2)cc1` [Example 27, 2-Butyl-4-chloro-5-[(1H-tetrazol-5-yl)methyl]-1-[4-(1H-tetrazol-5-yl)benzyl]imidazole], on AII receptor (tested as sodium salt), the IC50 turned out to be 1200 nM. In addition, in the assay with Renal Hypertensive Rats (tested as sodium salt), the minimal effective dose at 10 mg/kg was less than 10 mg/kg and the minimal effective dose at 100 mg/kg was less than 100 mg/kg.
Take `CCCCc1nc(Cl)c(CC(=O)OC)n1Cc1ccc(N2C(=O)c3ccccc3C2=O)cc1` [Example 29, Methyl 2-butyl-4-chloro-1-(4-N-phthalimidobenzyl)imidazole-5-acetate]: the concentration for half-maximal inhibition (IC50) on AII receptor was 3100 nM. In addition, in the assay with Renal Hypertensive Rats, the minimal effective dose at 10 mg/kg is less than 10 mg/kg and the minimal effective dose at 100 mg/kg was more than 100 mg/kg.
`CCCCc1nc(Cl)c(CC(=O)OC)n1Cc1ccc(NC(=O)c2ccccc2NS(=O)(=O)C(F)(F)F)cc1` [Example 30, Methyl 2-butyl-4-chloro-1-[4-((N-trifluoromethanesulfonyl)anthranilamido)benzyl]-imidazole-5-acetate]: on AII receptor (tested as sodium salt), the IC50 is 390 nM. Besides, in the assay with Renal Hypertensive Rats (tested as sodium salt), the minimal effective dose at 10 mg/kg was less than 10 mg/kg and the minimal effective dose at 100 mg/kg was less than 100 mg/kg.
The like results for `CCCCc1nc(Cl)c(CC(=O)OC)n1Cc1ccc(NC(=O)c2cc(I)ccc2NS(=O)(=O)C(F)(F)F)cc1` [Example 35] were, in that order, 3400 nM, less than 10 mg/kg and less than 100 mg/kg.
The like results for `CCCCc1nc(Cl)c(CC(=O)OC)n1Cc1ccc(NC(=O)c2cccc(C)c2NS(=O)(=O)C(F)(F)F)cc1` [Example 36] were, in that order, 190 nM, less than 10 mg/kg and more than 100 mg/kg.
`CCCCc1nc(Cl)c(CC(=O)OC)n1Cc1ccc(NC(=O)c2ccccc2NS(C)(=O)=O)cc1` [Example 51]: the IC50 at AII receptor stood at 2300 nM. In the assay on Renal Hypertensive Rats, this molecule came in with a minimal effective dose at 10 mg/kg of more than 100 mg/kg and a minimal effective dose at 100 mg/kg of more than 100 mg/kg.
With `CCCCc1nc(Cl)c(CC(=O)OC)n1Cc1ccc(NC(=O)c2cc(C)ccc2NS(=O)(=O)C(F)(F)F)cc1` [Example 53A], the IC50 at AII receptor was 810 nM. Also, in the assay with Renal Hypertensive Rats, the minimal effective dose at 10 mg/kg is more than 100 mg/kg and the minimal effective dose at 100 mg/kg was more than 100 mg/kg.
For the molecule `CCCCc1nc(Cl)c(CO)n1Cc1ccc(NC(=O)c2ccccc2NS(=O)(=O)C(F)(F)F)cc1` [Example 53B], the half-maximal inhibitory concentration (IC50) on AII receptor was 360 nM. The minimal effective dose at 10 mg/kg in the assay with Renal Hypertensive Rats was less than 10 mg/kg.
`CCCCc1ncc(CO)n1Cc1ccc(NC(=O)c2ccccc2NS(=O)(=O)C(F)(F)F)cc1` [Example 53C]: on AII receptor, the half-maximal inhibitory concentration (IC50) was found to be 210 nM. This molecule registered a minimal effective dose at 10 mg/kg in the assay on Renal Hypertensive Rats of less than 10 mg/kg.
The like results for `CCCCCCCc1nc(Cl)c(CO)n1Cc1ccc(NC(=O)c2ccccc2NS(=O)(=O)C(F)(F)F)cc1` [Example 54, 4-Chloro-2-heptyl-5-hydroxymethyl-1-[4-((N-trifluoromethanesulfonyl)-anthranilamido)benzyl]imidazole] were, in that order, 7200 nM and less than 10 mg/kg.
Consider `COCCc1nc(Cl)c(CO)n1Cc1ccc(NC(=O)c2ccccc2C(=O)O)cc1` [Example 55, 1-[4-(2-Carboxybenzamido)-benzyl]-4-chloro-5-hydroxymethyl-2-(2-methoxyethyl)imidazole], for which the half-inhibitory concentration (IC50) on AII receptor amounted to 930 nM. In the assay on Renal Hypertensive Rats, this molecule registered a minimal effective dose at 10 mg/kg of less than 10 mg/kg and a minimal effective dose at 100 mg/kg of more than 100 mg/kg.
The like results for `CCc1nccn1Cc1ccc(NC(=O)c2ccccc2NS(=O)(=O)C(F)(F)F)cc1` [Example 57] were, in that order, 4900 nM, less than 10 mg/kg and more than 100 mg/kg.
The like results for `CC(C)c1nccn1Cc1ccc(NC(=O)c2ccccc2NS(=O)(=O)C(F)(F)F)cc1` [Example 58] were, in that order, 8300 nM, less than 10 mg/kg and more than 100 mg/kg.
The like results for `CCCCc1nccn1Cc1ccc(NC(=O)c2ccccc2NS(=O)(=O)C(F)(F)F)cc1` [Example 59] were, in that order, 3000 nM, more than 100 mg/kg and more than 100 mg/kg.
As for `CCCc1nccn1Cc1ccc(NC(=O)c2ccccc2C(=O)O)cc1` [Example 63], on AII receptor (tested as sodium salt), the IC50 is 3700 nM. For the same molecule, in the assay on Renal Hypertensive Rats (tested as sodium salt), the minimal effective dose at 100 mg/kg was more than 100 mg/kg.
On to `CCCCc1nccn1Cc1ccc(NC(=O)c2ccccc2C(=O)O)cc1` [Example 64], for which the IC50 on AII receptor came to 620 nM. In the assay with Renal Hypertensive Rats, this molecule returned a minimal effective dose at 10 mg/kg of less than 10 mg/kg and a minimal effective dose at 100 mg/kg of more than 100 mg/kg.
The like results for `CCCCCc1nccn1Cc1ccc(NC(=O)c2ccccc2C(=O)O)cc1` [Example 65] were, in that order, 240 nM, less than 10 mg/kg and more than 100 mg/kg.
As to `CCCCCCc1nccn1Cc1ccc(NC(=O)c2ccccc2C(=O)O)cc1` [Example 66], at AII receptor, the half-maximal inhibitory concentration (IC50) amounted to 350 nM. In the assay with Renal Hypertensive Rats, this molecule returned a minimal effective dose at 10 mg/kg of less than 10 mg/kg and a minimal effective dose at 100 mg/kg of more than 100 mg/kg.
The like results for `CCCCCCCc1nccn1Cc1ccc(NC(=O)c2ccccc2C(=O)O)cc1` [Example 67] were, in that order, 1100 nM, less than 10 mg/kg and more than 100 mg/kg.
The like results for `COc1ccc(Cc2nccn2Cc2ccc(NC(=O)c3ccccc3C(=O)O)cc2)cc1` [Example 70] were, in that order, 2500 nM, less than 10 mg/kg and more than 100 mg/kg.
For the molecule `CSc1ncc(CO)n1Cc1ccc(NC(=O)c2ccccc2C(=O)O)cc1` [Example 72, 1-[4-(2-Carboxybenzamido)-benzyl]-5-hydroxymethyl-2-(methylthio)-imidazole], the IC50 at AII receptor was determined as 6500 nM. In the assay with Renal Hypertensive Rats, this molecule yielded a minimal effective dose at 10 mg/kg of less than 10 mg/kg and a minimal effective dose at 100 mg/kg of more than 100 mg/kg.
On to `CCCCc1nc(C#N)c(C#N)n1Cc1ccc(NC(=O)c2ccccc2NS(=O)(=O)C(F)(F)F)cc1` [Example 75, 2-Butyl-4,5-dicyano-1-[4-((N-trifluoromethanesulfonyl)anthranilamido)-benzyl]imidazole], for which, at AII receptor (tested as sodium salt), the IC50 amounted to 7600 nM. In addition, in the assay with Renal Hypertensive Rats (tested as sodium salt), the minimal effective dose at 10 mg/kg was less than 10 mg/kg and the minimal effective dose at 100 mg/kg was less than 100 mg/kg.
With `CCCCc1nc(Cl)c(CC(=O)OC)n1Cc1ccc(N(Cc2ccccc2)C(=O)c2ccccc2NS(=O)(=O)C(F)(F)F)cc1` [Example 76, Methyl 2-butyl-1-[4-(N-benzyl-N-(2-(trifluoromethanesulfonamido)benzoyl)-amino)benzyl]-4-chloroimidazole-5-acetate], at AII receptor (tested as sodium salt), the IC50 stood at 2700 nM. In the assay on Renal Hypertensive Rats (tested as sodium salt), the minimal effective dose at 10 mg/kg is less than 10 mg/kg and the minimal effective dose at 100 mg/kg was more than 100 mg/kg.
`CCCCc1nc(Cl)c(COC)n1Cc1ccc(N(C)C(=O)c2c(Cl)ccc(Cl)c2C(=O)O)cc1` [Example 77, 2-n-Butyl-4-chloro-5-methoxymethyl-1-[4-(N-methyl-2-carboxy-3,6-dichlorobenzamid)benzyl]imidazole]: the half-inhibitory concentration (IC50) on AII receptor (tested as sodium salt) was 5700 nM. In the assay with Renal Hypertensive Rats (tested as sodium salt), the minimal effective dose at 10 mg/kg is more than 100 mg/kg and the minimal effective dose at 100 mg/kg was more than 100 mg/kg.
Consider `CCCCc1nc(Cl)c(COC)n1Cc1ccc(C(=O)Nc2ccccc2C(=O)O)cc1` [Example 78], for which, on AII receptor (tested as sodium salt), the concentration for half-maximal inhibition (IC50) came to 8000 nM. For the same molecule, in the assay with Renal Hypertensive Rats (tested as sodium salt), the minimal effective dose at 10 mg/kg was less than 10 mg/kg and the minimal effective dose at 100 mg/kg was less than 100 mg/kg.
The like results for `CCCCc1nc(Cl)c(COC)n1Cc1ccc(C(=O)Nc2nnn[nH]2)cc1` [Example 79] were, in that order, 500 nM, less than 10 mg/kg and more than 100 mg/kg.
